Laboratory results from patent publication US20220396565A1 (Hoffmann-La Roche Inc., priority 2020, published 2022).
Where a name gives a salt, the structure may show the parent alone.

Tested on: Acinetobacter baumannii ATCC17961
Test: Antimicrobial susceptibility testing: 90% growth inhibitory concentration (IC90) determination, Iso-Sensitest broth
Assay type: cell-based
Details: Acinetobacter baumannii, ATCC17961, 90% growth inhibitory concentration, Acinetobacter baumannii ATCC17961, Iso-Sensitest broth; read-out: ATCC 17961 IC90
Summary of the method: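 Growth at OD600 was monitored every 20 min for 16 h at 35±2 °C, with bacteria inoculated at ~5×10^(5) CFU/ml into Iso-Sensitest medium. Compounds were tested as 10-point twofold dilutions (e.g. 10–0.02 μM final). The 90% inhibitory concentration comes from the log-phase growth.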

Structure (SMILES)	IC90 [nM]
COc1ccc(-c2cnc(C(=O)Nc3ccc(C(=O)N4CCN(C(=O)[C@H]5C[C@@H](N)C5)CC4)c(Cl)c3)n2C)c(F)c1F [Example 140, N-[4-[4-(3-aminocyclobutanecarbonyl)piperazine-1-carbonyl]-3-chloro-phenyl]-5-(2,3-difluoro-4-methoxy-phenyl)-1-methyl-imidazole-2-carboxamide formate]	50
COc1ccc(-c2cnc(C(=O)Nc3ccc(C(=O)N4CCN(C(=O)C5(O)CCNC5)CC4)c(Cl)c3)n2C)c(F)c1F (stereo not shown) [Example 141, N-[3-chloro-4-[4-(3-hydroxypyrrolidine-3-carbonyl)piperazine-1-carbonyl]phenyl]-5-(2,3-difluoro-4-methoxy-phenyl)-1-methyl-imidazole-2-carboxamide formate]	60
COc1ccc(-c2cnc(C(=O)Nc3ccc(C(=O)N4CCN(C(=O)CC5CCNCC5)CC4)c(Cl)c3)n2C)c(F)c1F [Example 142, N-[3-chloro-4-[4-[2-(4-piperidyl)acetyl]piperazine-1-carbonyl]phenyl]-5-(2,3-difluoro-4-methoxy-phenyl)-1-methyl-imidazole-2-carboxamide; formic acid]	40
Cn1c(-c2ccc(OC(F)F)c(F)c2)cnc1C(=O)Nc1ccc(C(=O)N2CCN(C(=O)C3CCNCC3)CC2)c(Cl)c1 [Example 144, N-[3-chloro-4-[4-(piperidine-4-carbonyl)piperazine-1-carbonyl]phenyl]-5-[4-(difluoromethoxy)-3-fluoro-phenyl]-1-methyl-imidazole-2-carboxamide formate]	60
COc1ccc(-c2cnc(C(=O)Nc3ccc(C(=O)N4CCN(C(=O)CC5CNC5)CC4)c(Cl)c3)n2C)c(F)c1F [Example 145, N-[4-[4-[2-(azetidin-3-yl)acetyl]piperazine-1-carbonyl]-3-chloro-phenyl]-5-(2,3-difluoro-4-methoxy-phenyl)-1-methyl-imidazole-2-carboxamide formate]	40
Cn1c(-c2ccc(OC(F)F)c(F)c2Cl)cnc1C(=O)Nc1ccc(C(=O)N2CCN(C(=O)C[C@@H]3CCNC3)CC2)c(Cl)c1 [Example 147, 5-[2-chloro-4-(difluoromethoxy)-3-fluoro-phenyl]-N-[3-chloro-4-[4-[2-[(3S)-pyrrolidin-3-yl]acetyl]piperazine-1-carbonyl]phenyl]-1-methyl-imidazole-2-carboxamide formate]	40
COc1ccc(-c2cnc(C(=O)Nc3ccc(C(=O)N4CCN(C(=O)CN)CC4)c(Cl)c3)n2C)c(F)c1F [Example 149, N-[4-[4-(2-aminoacetyl)piperazine-1-carbonyl]-3-chloro-phenyl]-5-(2,3-difluoro-4 methoxy-phenyl)-1-methyl-imidazole-2-carboxamide formate]	30
COc1ccc(-c2cnc(C(=O)Nc3ccc(C(=O)N4CCN(C(=O)[C@@H]5CCN5)CC4)c(Cl)c3)n2C)c(F)c1F [Example 150, N-[4-[4-[(2S)-azetidine-2-carbonyl]piperazine-1-carbonyl]-3-chloro-phenyl]-5-(2,3-difluoro-4-methoxy-phenyl)-1-methyl-imidazole-2-carboxamide formate]	80
COc1ccc(-c2cnc(C(=O)Nc3ccc(C(=O)N4CCN(C(=O)C[C@H]5CCCN5)CC4)c(Cl)c3)n2C)c(F)c1F [Example 152, N-[3-chloro-4-[4-[2-[(2R)-pyrrolidin-2-yl]acetyl]piperazine-1-carbonyl]phenyl]-5-(2,3-difluoro-4-methoxy-phenyl)-1-methyl-imidazole-2-carboxamide formate]	50
COc1ccc(-c2cnc(C(=O)Nc3ccc(C(=O)N4CCN(C(=O)C[C@@H]5CCCN5)CC4)c(Cl)c3)n2C)c(F)c1F [Example 154, N-[3-chloro-4-[4-[2-[(2S)-pyrrolidin-2-yl]acetyl]piperazine-1-carbonyl]phenyl]-5-(2,3-difluoro-4-methoxy-phenyl)-1-methyl-imidazole-2-carboxamide formate]	70
CN(C)CC(=O)N1CCN(C(=O)c2ccc(NC(=O)c3ncc(-c4ccc(OC(F)F)c(F)c4F)n3C)cc2Cl)CC1 [Example 156, N-[3-chloro-4-[4-[2-(dimethylamino)acetyl]piperazine-1-carbonyl]phenyl]-5-[4-(difluoromethoxy)-2,3-difluoro-phenyl]-1-methyl-imidazole-2-carboxamide formate]	30
Cn1c(-c2ccc(OC(F)F)cc2F)cnc1C(=O)Nc1ccc(C(=O)N2CCN(C(=O)C[C@@H]3CCCN3)CC2)c(Cl)c1 [Example 159, N-[3-chloro-4-[4-[2-[(2S)-pyrrolidin-2-yl]acetyl]piperazine-1-carbonyl]phenyl]-5-[4-(difluoromethoxy)-2-fluoro-phenyl]-1-methyl-imidazole-2-carboxamide formate]	70
COc1ccc(-c2cnc(C(=O)Nc3ccc(C(=O)N4CCN(C(=O)CC5(O)CCNCC5)CC4)c(Cl)c3)n2C)c(F)c1F [Example 161, N-[3-chloro-4-[4-[2-(4-hydroxy-4-piperidyl)acetyl]piperazine-1-carbonyl]phenyl]-5-(2,3-difluoro-4-methoxy-phenyl)-1-methyl-imidazole-2-carboxamide formate]	30
Cn1c(-c2ccc(OC(F)F)c(F)c2F)cnc1C(=O)Nc1ccc(C(=O)N2CCN(C(=O)[C@@H]3C[C@@H](O)CN3)CC2)c(Cl)c1 [Example 163, N-[3-chloro-4-[4-[(2S,4R)-4-hydroxypyrrolidine-2-carbonyl]piperazine-1-carbonyl]phenyl]-5-[4-(difluoromethoxy)-2,3-difluoro-phenyl]-1-methyl-imidazole-2-carboxamide formate]	40
Cn1c(-c2ccc(OCF)c(F)c2F)cnc1C(=O)Nc1ccc(C(=O)N2CCN(C(=O)CC3(O)CCNCC3)CC2)c(Cl)c1 [Example 164, N-[3-chloro-4-[4-[2-(4-hydroxy-4-piperidyl)acetyl]piperazine-1-carbonyl]phenyl]-5-[2,3-difluoro-4-(fluoromethoxy)phenyl]-1-methyl-imidazole-2-carboxamide formate]	70

Now from value to molecule:

IC90 [nM]	Structure (SMILES)
30	Cn1c(-c2ccc(OCF)c(F)c2F)cnc1C(=O)Nc1ccc(C(=O)N2CCN(C(=O)C3CCNCC3)CC2)c(Cl)c1 [Example 143, N-[3-chloro-4-[4-(piperidine-4-carbonyl)piperazine-1-carbonyl]phenyl]-5-[2,3-difluoro-4-(fluoromethoxy)phenyl]-1-methyl-imidazole-2-carboxamide formate]
40	Cn1c(-c2ccc(OCF)c(F)c2Cl)cnc1C(=O)Nc1ccc(C(=O)N2CCN(C(=O)C[C@@H]3CCNC3)CC2)c(Cl)c1 [Example 146, 5-[2-chloro-3-fluoro-4-(fluoromethoxy)phenyl]-N-[3-chloro-4-[4-[2-[(3S)-pyrrolidin-3-yl]acetyl]piperazine-1-carbonyl]phenyl]-1-methyl-imidazole-2-carboxamide formate]
40	Cn1c(-c2ccc(OCF)c(F)c2F)cnc1C(=O)Nc1ccc(C(=O)N2CCN(C(=O)C3CNCC3O)CC2)c(Cl)c1 (stereo not shown) [Example 148, N-[3-chloro-4-[4-(4-hydroxypyrrolidine-3-carbonyl)piperazine-1-carbonyl]phenyl]-5-[2,3-difluoro-4-(fluoromethoxy)phenyl]-1-methyl-imidazole-2-carboxamide formate]
40	COc1ccc(-c2cnc(C(=O)Nc3ccc(C(=O)N4CCN(C(=O)CC5CCNC5)CC4)c(Cl)c3)n2C)c(F)c1F (stereo not shown) [Example 151, N-[3-chloro-4-[4-(2-pyrrolidin-3-ylacetyl)piperazine-1-carbonyl]phenyl]-5-(2,3-difluoro-4-methoxy-phenyl)-1-methyl-imidazole-2-carboxamide formate]
60	COc1ccc(-c2cnc(C(=O)Nc3ccc(C(=O)N4CCN(C(=O)C[C@H]5CCNC5)CC4)c(Cl)c3)n2C)c(F)c1F [Example 153, N-[3-chloro-4-[4-[2-[(3R)-pyrrolidin-3-yl]acetyl]piperazine-1-carbonyl]phenyl]-5-(2,3-difluoro-4-methoxy-phenyl)-1-methyl-imidazole-2-carboxamide formate]
40	Cn1c(-c2ccc(OCF)c(F)c2F)cnc1C(=O)Nc1ccc(C(=O)N2CCN(C(=O)[C@@H]3CCNC3)CC2)c(Cl)c1 [Example 155, N-[3-chloro-4-[4-[(3R)-pyrrolidine-3-carbonyl]piperazine-1-carbonyl]phenyl]-5-[2,3-difluoro-4-(fluoromethoxy)phenyl]-1-methyl-imidazole-2-carboxamide formate]
30	Cn1c(-c2ccc(OCF)c(F)c2F)cnc1C(=O)Nc1ccc(C(=O)N2CCN(C(=O)C[C@@H]3CCCN3)CC2)c(Cl)c1 [Example 157, N-[3-chloro-4-[4-[2-[(2S)-pyrrolidin-2-yl]acetyl]piperazine-1-carbonyl]phenyl]-5-[2,3-difluoro-4-(fluoromethoxy)phenyl]-1-methyl-imidazole-2-carboxamide formate]
40	Cn1c(-c2ccc(OCF)c(F)c2F)cnc1C(=O)Nc1ccc(C(=O)N2CCN(C(=O)C[C@@H]3CCNC3)CC2)c(Cl)c1 [Example 158, N-[3-chloro-4-[4-[2-[(3S)-pyrrolidin-3-yl]acetyl]piperazine-1-carbonyl]phenyl]-5-[2,3-difluoro-4-(fluoromethoxy)phenyl]-1-methyl-imidazole-2-carboxamide formate]
40	Cn1c(-c2ccc(OCF)c(F)c2F)cnc1C(=O)Nc1ccc(C(=O)N2CCN(C(=O)CC3(O)CNC3)CC2)c(Cl)c1 [Example 160, N-[3-chloro-4-[4-[2-(3-hydroxyazetidin-3-yl)acetyl]piperazine-1-carbonyl]phenyl]-5-[2,3-difluoro-4-(fluoromethoxy)phenyl]-1-methyl-imidazole-2-carboxamide formate]
30	Cn1c(-c2ccc(OCF)c(F)c2F)cnc1C(=O)Nc1ccc(C(=O)N2CCN(C(=O)C3(O)CCNCC3)CC2)c(Cl)c1 [Example 162, N-[3-chloro-4-[4-(4-hydroxypiperidine-4-carbonyl)piperazine-1-carbonyl]phenyl]-5-[2,3-difluoro-4-(fluoromethoxy)phenyl]-1-methyl-imidazole-2-carboxamide formate]
